Laboratory results: patent publication US6831091B2, “Salt forms of 3-(4-bromo-2,6-difluoro-benzyloxy)-5-[3-(4-pyrrolidin-1-yl-butyl)-ureido]-isothiazole-4-carboxylic acid amide and method of production” (priority 2000, dated 2004)

Tests used:
[1] = Hygroscopicity (water uptake at stated relative humidity); assay type: physicochemical; conditions: for hygroscopicity relative to the mesylate salt: compared with mesylate salt; for water absorbed: 90% relative humidity
[2] = Stability in air / deliquescence; assay type: physicochemical; conditions: can be used without deliquescence
[3] = Crystallinity (freedom from amorphous material); assay type: physicochemical; conditions: i.e., substantially free of amorphous material
[4] = Conversion of crystal form in refluxing ethanol; assay type: physicochemical
[5] = Tendency of concentrated aqueous solution to form viscous mixtures upon standing; assay type: physicochemical
[6] = Sedative effect on dosing; assay type: in vivo; conditions: low to moderate dosing
[7] = assay type: physicochemical; conditions: for kinetic solubility relative to free base or hydrochloride: compared with free base or hydrochloride form

Row | Molecule | Hygroscopicity ([1]; 87% relative RH) [%] | hygroscopicity relative to the mesylate salt [1] | stability in air [2] | hygroscopic stability [1] | crystallinity [3] | further results
1 | 3-(4-bromo-2,6-difluoro-benzyloxy)-5-[3-(4-pyrrolidin-1-yl-butyl)-ureido]-isothiazole-4-carboxylic acid amide hemi-citrate [Example 4] | 0.43 | less hygroscopic than the mesylate salt | more stable in air | – | – | –
2 | 3-(4-bromo-2,6-difluoro-benzyloxy)-5-[3-(4-pyrrolidin-1-yl-butyl)-ureido]-isothiazole-4-carboxylic acid amide hemi-succinate | – | – | – | substantially hygroscopically stable | high crystallinity | –
3 | 3-(4-bromo-2,6-difluoro-benzyloxy)-5-[3-(4-pyrrolidin-1-yl-butyl)-ureido]-isothiazole-4-carboxylic acid amide hemi-succinate [Example 8] | – | – | – | – | – | Hygroscopicity ([1]; 30° C. and 90% RH, listed as Hemi-succinate crystal form A): 0.6 % w/w; Hygroscopicity ([1]; 90% relative RH): 0.6%; water absorbed ([1]; listed as Form A hemi-succinate): 0.6%
4 | 3-(4-bromo-2,6-difluoro-benzyloxy)-5-[3-(4-pyrrolidin-1-yl-butyl)-ureido]-isothiazole-4-carboxylic acid amide hemi-succinate [Example 9] | – | – | – | – | – | Hygroscopicity ([1]; 30° C. and 90% RH, listed as Hemi-succinate crystal form B): 1.5 % w/w; Hygroscopicity ([1]; 90% relative RH): 1.5%; water absorbed ([1]; listed as Form B hemi-succinate): 1.5%; time for conversion of hemi-succinate form B into form A [4]: less than 24 hours
5 | Cl.NC(=O)c1c(OCc2c(F)cc(Br)cc2F)nsc1NC(=O)NCCCCN1CCCC1 [Example 2, 3-(4-bromo-2,6-difluoro-benzyloxy)-5-[3-(4-pyrrolidin-1-yl-butyl)-ureido]-isothiazole-4-carboxylic acid amide hydrochloride] | – | – | – | substantially hygroscopically stable | high crystallinity | Hygroscopicity ([1]; 90% relative humidity at ambient temperature): 1 % (by weight); tendency for concentrated aqueous solution to form viscous mixtures upon standing [5]: low tendency
6 | Br.NC(=O)c1c(OCc2c(F)cc(Br)cc2F)nsc1NC(=O)NCCCCN1CCCC1 [Example 3, 3-(4-bromo-2,6-difluoro-benzyloxy)-5-[3-(4-pyrrolidin-1-yl-butyl)-ureido]-isothiazole-4-carboxylic acid amide hydrobromide] | 0.1 | – | – | substantially hygroscopically stable | high crystallinity | tendency for concentrated aqueous solution to form viscous mixtures upon standing [5]: low tendency; sedative effect [6]: mild sedative effect
7 | CC(=O)O.NC(=O)c1c(OCc2c(F)cc(Br)cc2F)nsc1NC(=O)NCCCCN1CCCC1 [Example 5, 3-(4-bromo-2,6-difluoro-benzyloxy)-5-[3-(4-pyrrolidin-1-yl-butyl)-ureido]-isothiazole-4-carboxylic acid amide acetate] | – | – | – | – | high crystallinity | –
8 | Cc1ccc(S(=O)(=O)O)cc1.NC(=O)c1c(OCc2c(F)cc(Br)cc2F)nsc1NC(=O)NCCCCN1CCCC1 [Example 6, 3-(4-bromo-2,6-difluoro-benzyloxy)-5-[3-(4-pyrrolidin-1-yl-butyl)-ureido]-isothiazole-4-carboxylic acid amide p-tosylate] | −0.9 | less hygroscopic than the mesylate salt | more stable in air | – | – | kinetic solubility relative to free base or hydrochloride [7]: greater kinetic solubility than the free base or hydrochloride form
9 | NC(=O)c1c(OCc2c(F)cc(Br)cc2F)nsc1NC(=O)NCCCCN1CCCC1.O=C(O)C(O)C(O)C(=O)O [Example 7, 3-(4-bromo-2,6-difluoro-benzyloxy)-5-[3-(4-pyrrolidin-1-yl-butyl)-ureido]-isothiazole-4-carboxylic acid amide L-tartrate] | – | less hygroscopic than the mesylate salt | more stable in air | – | – | Hygroscopicity ([1]; 100% RH): 0.3%; kinetic solubility relative to free base or hydrochloride [7]: greater kinetic solubility than the free base or hydrochloride form
10 | CS(=O)(=O)O.NC(=O)c1c(OCc2c(F)cc(Br)cc2F)nsc1NC(=O)NCCCCN1CCCC1 [Example 10, 3-(4-bromo-2,6-difluoro-benzyloxy)-5-[3-(4-pyrrolidin-1-yl-butyl)-ureido]-isothiazole-4-carboxylic acid amide mesylate] | – | – | – | – | high crystallinity | kinetic aqueous solubility [7]: rapid kinetic aqueous solubility
